Entries after “also recorded” stand apart in the source; their conditions may differ.

The text below walks through data of patent publication US11969417B2, “Topical formulation for use in alopecia” (TOMORROWLABS GMBH, priority 2019, dated 2024).

The test system of this test is dermal papilla cell (DP). The test is described as follows: 3D spheroid (hanging drop) culture model of dermal papilla cells. The format is cell-based. As to conditions: 3D spheroid culture. As to the method: FIG. 1: 3D hanging drop culture of DPCs. […] After spheroid formation is complete, the samples are transferred into a 96 well plate for further cultivation and drug exposure. […] (A) Representative images of spheroids stained for newly synthesized cells were taken after drug exposure for 12 hours (left column) and 24 hours (right column) respectively. Scale bars: 200 μm.

Consider `Cc1c(O)c(=O)ccn1C` [Deferiprone, 3-hydroxy-1,2-dimethylpyridin-4(1H)-one], for which the “DP cell migration (radius of migration around the spheroids)” value (after 24 hours) is given as “without impeding; also recorded: unchanged”. The “DP cell proliferation (synthesis of new daughter cells)” value (drug exposure for 12 hours and 24 hours) is listed as “significantly increases; also recorded: significantly enhanced”.
